Source: the OPERA property sets (Mansouri et al. 2018)

Details: for log10 biotransformation half-life (days) / log10 BCF: fish

Compound | melting point | boiling point | further results
CC(=O)S[C@@H]1CC2=CC(=O)CC[C@]2(C)[C@H]2CC[C@@]3(C)[C@@H](CC[C@@]34CCC(=O)O4)[C@H]12 | 208 °C | – | –
CC[C@H](C)[C@@H](C)[C@@H](C)O | – | 166 °C | –
Cc1ccc(C=O)c(O)c1 | 60.5 °C | 223 °C | –
BrCc1ccc(Br)cc1 | 63 °C | – | –
C[Si](C)(Cl)C(Cl)Cl | -48 °C | 149 °C | –
CC1(C)CCC(Cc2ccc(Cl)cc2)C1(O)Cn1cncn1 (configuration not stated) | 112 °C | – | log10 vapour pressure (mmHg): -7.03; log10 biotransformation half-life (days): 0.23
c1ccc(C2CC2)cc1 | -31 °C | 174 °C | –
CCCCCCCC(=O)OCCCCC | -34.8 °C | 260 °C | –
CCCC1C(=O)N2C(N(C)C)=Nc3ccc(C)cc3N2C1=O (configuration not stated) | 247 °C | – | –
CCOCCC#N | – | 154 °C | –
Cc1nn(-c2cc(NS(C)(=O)=O)c(Cl)cc2Cl)c(=O)n1C(F)F | 122 °C | – | log10 vapour pressure (mmHg): -9.01
C=CC(F)(F)F | – | -17 °C | log10 vapour pressure (mmHg): 3.64
O=C1c2ccccc2N(C(=O)CN2CCOCC2)CN1c1ccccc1 | 136 °C | – | –
CC(CCO)CCCC(C)(C)O (configuration not stated) | – | 265 °C | –
FC(Cl)Cl | -135 °C | 8.9 °C | log10 vapour pressure (mmHg): 3.13
CCCCCCCCc1ccc2ccc3cccc4ccc1c2c34 | – | – | log10 biotransformation half-life (days): 1.26
CCc1ccc2ccccc2c1 | – | 258 °C | log10 Henry constant (atm·m³/mol): -3.27; log10 Koc (L/kg): 3.76; log10 vapour pressure (mmHg): -1.5
Cl.N=C(N)SCc1ccc(Cl)cc1 | 197 °C | – | –
CCCN(CCC)CCC | -93.5 °C | 156 °C | log10 vapour pressure (mmHg): 0.179
Cc1ccc(C)c2ncccc12 | 4.5 °C | 266 °C | –
CCCC(C)(C)C(=O)Nc1ccc(Cl)cc1 | 87.5 °C | – | –
CCCCCCCCCCCCCN | 27.4 °C | 276 °C | –
Clc1ccccc1-c1nnc(-c2ccccc2Cl)nn1 | 182 °C | – | log10 Koc (L/kg): 4.66; log10 vapour pressure (mmHg): -9.01
Brc1cccc(Br)c1Br | 87.5 °C | – | –

Compound | melting point | boiling point | further results
Oc1ccc(Cl)cc1O | 90.5 °C | – | ready biodegradability: not readily biodegradable
OCCN(CCO)c1ccccc1 | 57 °C | – | –
c1csc(-c2cccs2)c1 | 33 °C | 260 °C | –
Clc1ccccc1Cl | -16.7 °C | 180 °C | log10 Henry constant (atm·m³/mol): -2.72; log10 Koa: 4.36; log10 Koc (L/kg): 2.56; log10 vapour pressure (mmHg): 0.134; ready biodegradability: not readily biodegradable; log10 BCF: 2.43; log10 biotransformation half-life (days): 0.5
O=C(O)CC(O)C(=O)O (configuration not stated) | 131 °C | – | log10 vapour pressure (mmHg): -7.48; ready biodegradability: readily biodegradable
Cc1ccc2nc3c(ccc4ccccc43)c(C)c2c1 | 159 °C | – | –
CCCC[C@@H](O)CCC | – | 175 °C | log10 vapour pressure (mmHg): -0.507
ClC=CBr | -86.7 °C | 84.6 °C | –
CCOC(=O)C(C(=O)OCC)=C(C(=O)OCC)C(=O)OCC | 58 °C | – | –
CCCc1nccnc1C | – | 189 °C | –
COc1ccc(C(Cl)=C(c2ccc(OC)cc2)c2ccc(OC)cc2)cc1 | 115 °C | – | –
CCCCNCC(O)c1ccc(O)cc1 (configuration not stated) | 124 °C | – | –
[O-][N+](=Nc1ccccc1)c1ccccc1 | 36 °C | – | log10 Koc (L/kg): 3.5
O=C(O)C1CCCC1 | -7 °C | 212 °C | –
CCN(Cc1ccc(Cl)nc1)C(=C[N+](=O)[O-])NC | 82.8 °C | – | –
IC(I)(I)I | 171 °C | – | –
O=C(c1ccccc1)c1cccc([N+](=O)[O-])c1 | 95 °C | – | –
CCOC(=O)c1cc([N+](=O)[O-])cc([N+](=O)[O-])c1 | 94 °C | – | log10 Koc (L/kg): 2.74
COc1cc(C)nc(-n2nc(C)cc2OC)n1 | 91 °C | – | –
CC(C)c1cc(Oc2ccccc2)cc(C(C)C)c1NC(=S)NC(C)(C)C | 146 °C | – | –
O=C1C=C(N2CC2)C(=O)C(N2CC2)=C1N1CC1 | 163 °C | – | –
CCCCCCCCCCCCCCCCCCCC1CCCCC1 | 45 °C | 420 °C | –
CC(C)CCCCCCC=O | – | 197 °C | –
O=C(O)/C=C/c1ccc(Cl)cc1Cl | 234 °C | – | –

Compound | melting point | boiling point | further results
CCOc1ccc(C#N)cc1 | 61.5 °C | 258 °C | –
CC12CC1(C)C(=O)N(c1cc(Cl)cc(Cl)c1)C2=O (configuration not stated) | 166 °C | – | log10 Koc (L/kg): 3.18
Cc1cccc(Cl)c1N | 2 °C | 215 °C | –
CCCCCCCCCCCCCC(=O)CCCCCCCCCCCCC | 77.5 °C | – | –
COC(=O)C1(S(=O)(=O)c2ccc(Cl)cc2)CC1 | 116 °C | – | –
Cc1cccc(C=O)c1 | – | 199 °C | –
CCCCC(=O)c1ccccc1 | -9.4 °C | 245 °C | –
CC(=O)OCc1cnc(N)c(C#N)n1 | – | – | ready biodegradability: readily biodegradable
C1CCC(CCCC2CCCC2)CC1 | – | 270 °C | –
OCc1cc(Cl)cc(Cl)c1 | 80.5 °C | – | –
Nc1nc(Cl)cc(Cl)n1 | 220 °C | – | –
CC(=O)Oc1cc(C)c(OC(C)=O)c2ccccc12 | 113 °C | – | –
CC(=O)N(C)C(=O)COC(=O)c1ccccc1 | 102 °C | – | –
Cc1ccnc2ccccc12 | 9.5 °C | 262 °C | log10 vapour pressure (mmHg): -2.2
CC(O)COCC(C)O (configuration not stated) | – | 233 °C | ready biodegradability: not readily biodegradable; log10 BCF: 0.66
COC(=O)c1ccc(O)c(N)c1 | 143 °C | – | –
c1ccc2sc(SNC3CCCCC3)nc2c1 | 98 °C | – | ready biodegradability: not readily biodegradable
O=C(c1ccccc1)c1ccccc1O | 40 °C | – | –
CC/C=C\CC1=C(C)CCC1=O | – | 258 °C | –
CN1C(C)(C)CCCC1(C)C | – | 147 °C | –
CCCCCCCCCCCCCCCCCCCl | 28.6 °C | 348 °C | log10 vapour pressure (mmHg): -4.77
N#CC(Cl)(Cl)Cl | -42 °C | 85.7 °C | log10 vapour pressure (mmHg): 1.87
Clc1cc2c(oc3cc(Cl)c(Cl)c(Cl)c32)c(Cl)c1Cl | – | – | log10 Koa: 10.8; log10 BCF: 3.94; log10 biotransformation half-life (days): 1
CC(C)(C)c1ccc2cc3ccccc3cc2c1 | 147 °C | – | log10 vapour pressure (mmHg): -6.19

Compound | melting point | boiling point | further results
O=[N+]([O-])c1cc(C(F)(F)F)cc([N+](=O)[O-])c1Cl | 57 °C | – | –
CC(=O)Oc1c(I)cc(I)cc1C(=O)Nc1ccc(Cl)cc1 | 216 °C | – | –
CCCOCC(C)O (configuration not stated) | -80 °C | 150 °C | log10 vapour pressure (mmHg): 0.23
COC(=O)C1(S(=O)(=O)c2ccc(Br)cc2)CCC1 | 95 °C | – | –
O=C(O)c1cccc(-c2ccccc2)c1O | 186 °C | – | –
c1ccc(CCCC2CCCC2)cc1 | – | 272 °C | –
CC(=O)c1ccc(N)cc1 | – | 294 °C | ready biodegradability: not readily biodegradable
C/C=C/C(=O)N(CC)c1ccccc1C | – | – | ready biodegradability: not readily biodegradable
CCc1nc(CC)nc(NS(=O)(=O)c2ccc(N)cc2)n1 | 187 °C | – | ready biodegradability: not readily biodegradable
CC(C)COC(=O)Cc1ccccc1 | – | 247 °C | –
CC(C)=NNc1ccccc1 | 42 °C | – | –
CN(C)c1ccc(C=O)cc1 | 74.5 °C | – | log10 vapour pressure (mmHg): -2.43
O=c1n(Cl)c(=O)n(Cl)c(=O)n1Cl | – | – | ready biodegradability: not readily biodegradable
C[Si](C)(C)O[Si](C)(C)O[Si](C)(C)O[Si](C)(C)O[Si](C)(C)O[Si](C)(C)O[Si](C)(C)C | -78 °C | 270 °C | log10 vapour pressure (mmHg): -2.5
c1cocn1 | – | 69.5 °C | log10 vapour pressure (mmHg): 2.12
C=CC(C)CCC (configuration not stated) | – | 83.9 °C | log10 vapour pressure (mmHg): 1.92
Cc1ccc(S(=O)(=O)NC(=O)NN2CCCCCC2)cc1 | 172 °C | – | –
Clc1ccc(C(Cl)(Cl)Cl)cc1Cl | 25.8 °C | 283 °C | –
CC1CC(OC(=O)C(O)c2ccccc2)CC(C)(C)C1 (configuration not stated) | 56 °C | – | –
CCCCC(=O)O[C@]1(C(=O)CO)[C@@H](C)C[C@H]2[C@@H]3CCC4=CC(=O)C=C[C@]4(C)[C@@]3(F)[C@@H](O)C[C@@]21C | 184 °C | – | –
CCC1(CC)C(=O)C=CNC1=O | 90.7 °C | – | –
O=C(OC(=O)C(c1ccccc1)c1ccccc1)C(c1ccccc1)c1ccccc1 | 98 °C | – | –
Cc1cccc(C)c1Cl | -35 °C | 186 °C | –
C[C@H]1CC[C@@H]2C[C@H]1C2(C)C | -53 °C | – | –

Compound | melting point | boiling point | further results
Cc1ccc(C(=O)NS(=O)(=O)c2ccc(N)cc2)cc1C | 222 °C | – | –
c1ccc2[nH]cnc2c1 | 170 °C | – | –
COC(=O)c1cccc(OC)c1 | – | 248 °C | –
NC(=O)c1nc(-c2ccccc2)n(-c2ccc(Cl)c(COCC(F)(F)C(F)(F)F)c2)n1 | 146 °C | – | –
CC(C(=O)O)c1ccc(N2CC=CC2)c(Cl)c1 (configuration not stated) | 99 °C | – | –
CO[C@H]1[C@H](O)[C@H](O[C@H]2CC[C@@]3(C)[C@H](CC[C@@H]4[C@@H]3CC[C@]3(C)[C@@H](C5=CC(=O)OC5)CC[C@]43O)C2)O[C@@H](C)[C@@H]1O | 221 °C | – | –
CC(CCC(=O)O)(c1ccc(O)cc1)c1ccc(O)cc1 | 172 °C | – | –
O=C(O)Cc1sc(-c2ccccc2)nc1-c1ccc(Cl)cc1 | 162 °C | – | –
NC(=O)c1ccccc1[N+](=O)[O-] | 177 °C | 317 °C | log10 Koc (L/kg): 1.45
N#Cc1c(Cl)c(Cl)c(Cl)c(C#N)c1Cl | 250 °C | 350 °C | log10 Henry constant (atm·m³/mol): -5.7; log10 Koc (L/kg): 3.26; log10 vapour pressure (mmHg): -6.24; ready biodegradability: readily biodegradable; log10 BCF: 1.8; log10 biotransformation half-life (days): 0.27
O=C(O)c1cnc[nH]1 | – | 294 °C | –
O=C(O)Cc1cc(O)ccc1O | 153 °C | – | –
Oc1cccc(O)c1 | 111 °C | 280 °C | log10 Koc (L/kg): 0.98; log10 vapour pressure (mmHg): -3.31; ready biodegradability: readily biodegradable
C[C@]12CC[C@@H](O)C[C@@H]1CC[C@@H]1[C@@H]2CC[C@]2(C)C=CC[C@@H]12 | 143 °C | – | –
CC(=O)C1CCCCC1 | – | 180 °C | log10 Henry constant (atm·m³/mol): -4.47
Nc1ccc(-c2ccccc2)cc1 | 53.5 °C | 302 °C | –
O=C(O)c1cc(I)cc(I)c1O | 236 °C | – | –
CN(C)c1ccccc1Cl | – | 205 °C | –
O[C@@H](Cc1ccccc1)c1ccccc1 | 67 °C | – | –
CCc1ccc(C(=O)NN(C(=O)c2cc(C)cc(C)c2)C(C)(C)C)cc1 | 191 °C | – | log10 vapour pressure (mmHg): -7.65
CC1(C)OCCO1 | – | 92.5 °C | –
